Assay results reported in the NIST ThermoML archive (doi:10.1021/je900974u).

Assays:
[1] = molar heat capacity at constant pressure; conditions: 101.33 kPa, Liquid, Vacuum adiabatic calorimetry
[2] = Molar enthalpy of transition or fusion; conditions: Crystal; Adiabatic calorimetry
[3] = Crystal

CCCC[N+](C)(C)C.O=S(=O)([N-]S(=O)(=O)C(F)(F)F)C(F)(F)F [butyltrimethylammonium bis(trifluoromethylsulfonyl)imide]
[1]
Conditions | molar heat capacity at constant pressure [J/K/mol]
278.32 K | 547.5
280.19 K | 548.7
282.06 K | 549.7
283.93 K | 550.8
285.8 K | 551.9
287.67 K | 553
289.54 K | 554.1
291.42 K | 555.3
293.29 K | 556.4
293.87 K | 557
295.16 K | 557.4
297.04 K | 558.4
298 K | 559.2
298.91 K | 559.5
300.04 K | 560.4
302.07 K | 561.1
304.14 K | 563.3
306.21 K | 563.9
308.28 K | 565.4
310.35 K | 566.5
312.42 K | 568.2
314.49 K | 569.1
316.55 K | 570.3
318.6 K | 571.4
320.67 K | 573.2
322.73 K | 575.1
324.8 K | 575
326.86 K | 576.5
328.92 K | 577.2
330.98 K | 578.5
333.04 K | 580.6
335.09 K | 581.5
337.15 K | 582.9
339.2 K | 584.1
341.26 K | 585.7
343.31 K | 586.6
345.36 K | 587.7
347.41 K | 588.6
349.46 K | 590.1
351.49 K | 591.1
353.54 K | 592.1
355.59 K | 593.4
357.65 K | 594.8
359.7 K | 596
361.76 K | 597.4
363.81 K | 598.5
365.87 K | 599.8
367.93 K | 600.9

Conditions | Molar enthalpy of transition or fusion [kcal/mol] | Triple point temperature [K]
[2] | 2.725 | –
[3] | – | 290.23

CCCCn1cc[n+](C)c1.O=S(=O)([O-])C(F)(F)F [1-butyl-3-methylimidazolium trifluoromethanesulfonate]
[1]
Conditions | molar heat capacity at constant pressure [J/K/mol]
292.86 K | 425
294.76 K | 425.9
296.65 K | 427
298.54 K | 427.9
300.43 K | 429.1
302.38 K | 429.6
304.36 K | 431.1
306.35 K | 431.9
308.34 K | 433.1
310.33 K | 434
312.32 K | 435.1
314.31 K | 436.3
316.3 K | 437.1
318.29 K | 438.3
320.27 K | 439.1
322.26 K | 440.6
324.25 K | 441.4
326.24 K | 442.6
328.22 K | 443.8
330.2 K | 444.6
332.19 K | 445.8
334.17 K | 446.9
336.15 K | 447.8
338.13 K | 448.9
340.11 K | 449.8
342.09 K | 451
344.07 K | 452.1
346.05 K | 453.3
348.03 K | 454.3
350 K | 455.5
351.98 K | 456.3
353.96 K | 457.8
355.94 K | 458.6
357.92 K | 459.5
359.89 K | 460.7
361.87 K | 462.1
363.84 K | 463
365.81 K | 464.1
367.78 K | 465

Conditions | Molar enthalpy of transition or fusion [kcal/mol] | Triple point temperature [K]
[2] | 4.637 | –
[3] | – | 290.98

CCCC[N+]1(C)CCCC1.O=S(=O)([N-]S(=O)(=O)C(F)(F)F)C(F)(F)F
[1]
Conditions | molar heat capacity at constant pressure [J/K/mol]
237.44 K | 546.8
239.5 K | 548
241.39 K | 549
243.28 K | 550.7
245.17 K | 552.2
247.06 K | 553.5
248.95 K | 554.6
250.84 K | 556
252.73 K | 557.3
254.62 K | 558.7
256.51 K | 559.6
258.4 K | 561.5
260.29 K | 562.1
262.04 K | 563.9
262.18 K | 563.5
264.07 K | 565.2
264.1 K | 565.2
265.99 K | 566.6
267.88 K | 567.6
269.77 K | 568.9
271.66 K | 570.2
273.55 K | 571.6
275.44 K | 572.9
277.33 K | 574.2
279.22 K | 575.3
281.11 K | 576.6
283 K | 577.9
284.89 K | 579.2
286.78 K | 580.2
288.67 K | 581.4
290.56 K | 582.8
292.45 K | 584
294.34 K | 585.1
296.23 K | 586.3
298.12 K | 588
300.01 K | 589
301.9 K | 590.6
303.79 K | 591.8
305.68 K | 593
307.57 K | 594.5
309.46 K | 595.6
311.34 K | 596.7
313.23 K | 598.2
315.12 K | 599.6
317.02 K | 600.8
318.92 K | 602.2
320.82 K | 603.4
322.71 K | 604.5
324.61 K | 606.1
326.51 K | 607.5
328.41 K | 608.6
330.31 K | 609.9
332.21 K | 611.4
334.11 K | 612.9
336.01 K | 614.2
337.91 K | 615.4
339.81 K | 616.8
341.72 K | 618.2
343.62 K | 619.5
345.52 K | 621
347.44 K | 622.4
349.34 K | 623.9
351.25 K | 625.2
353.16 K | 626.7
355.06 K | 627.9
356.97 K | 629.2
358.87 K | 630.9
360.78 K | 632.1
362.69 K | 633.7
364.59 K | 635
366.5 K | 636.1
368.4 K | 638

Conditions | Molar enthalpy of transition or fusion [kcal/mol] | Triple point temperature [K]
[2] | 5.234 | –
[3] | – | 265.65
